Test results published in patent publication US20080207527A1, “Bicyclic Compounds Which Inhibit Beta-Secretase Activity and Methods of Use Thereof” (CoMentis, Inc., priority 2004, published 2008).

Tests used:
Aβ production = assay: Cellular Aβ IC50 determination (Aβ40 sandwich ELISA); type: cell-based; conditions: Cricetulus griseus, Chinese hamster ovary cells over-expressing human APP695 with London and Swedish mutations, 24 h
Experimental: The potency of compounds against memapsin 2 activity was determined in a cellular assay of Aβ production. […] Chinese hamster ovary cells that over-express human APP695 with the London and Swedish mutations were seeded in multi-well plates at 10% confluency. Compounds were dissolved in DMSO to concentrations near 1 mM, and diluted into culture media to a final concentration near 4 μM (final 0.4% DMSO). Compounds were diluted serially and applied to cells in multi-well plates 48 h after seeding. Incubation was continued in 5% CO2 at 37 degrees C. for 24 h. Aliquots were removed and assayed for Aβ40 content using a sandwich ELISA (BioSource International). Amount of Aβ40 over the range of concentration of compounds, relative to control incubations, were fit to a 4-parameter IC50 model.

memapsin 2 = memapsin 2 (Homo sapiens, UniProt P56817); assay: Inhibition of memapsin 2 beta-secretase activity toward fluorogenic substrate FS-2; type: biochemical; conditions: pH 4, 37° C., 20 minutes pre-incubation, read-out: M2 Ki
Experimental: Potency of compounds were determined by measurement of their inhibition of memapsin 2 activity toward a fluorescent substrate. […] Briefly, assays were performed at pH 4, 37° C., by pre-incubation of memapsin 2 enzyme with compound for 20 minutes. Activity measure was initiated by addition of a fluorogenic substrate FS-2 (Bachem Americas, Torrance, Calif.). Fluorescent signal increase over time was measured as a rate of hydrolysis of the peptide substrate.

Cathepsin D = Cathepsin D (Homo sapiens, UniProt P07339); assay: Inhibition of cathepsin D activity (substrate peptide hydrolysis, MALDI-TOF); type: biochemical; conditions: pH 4.1, 37 degrees C., read-out: Cath D Ki
memapsin 1 = target: T1, memapsin 1 (Homo sapiens, UniProt Q9Y5Z0); assay: Inhibition of memapsin 1 beta-secretase activity (substrate peptide hydrolysis, MALDI-TOF); type: biochemical; conditions: pH 4.1, 37 degrees C., read-out: M1 Ki
T1 sequence (Q9Y5Z0 63-518): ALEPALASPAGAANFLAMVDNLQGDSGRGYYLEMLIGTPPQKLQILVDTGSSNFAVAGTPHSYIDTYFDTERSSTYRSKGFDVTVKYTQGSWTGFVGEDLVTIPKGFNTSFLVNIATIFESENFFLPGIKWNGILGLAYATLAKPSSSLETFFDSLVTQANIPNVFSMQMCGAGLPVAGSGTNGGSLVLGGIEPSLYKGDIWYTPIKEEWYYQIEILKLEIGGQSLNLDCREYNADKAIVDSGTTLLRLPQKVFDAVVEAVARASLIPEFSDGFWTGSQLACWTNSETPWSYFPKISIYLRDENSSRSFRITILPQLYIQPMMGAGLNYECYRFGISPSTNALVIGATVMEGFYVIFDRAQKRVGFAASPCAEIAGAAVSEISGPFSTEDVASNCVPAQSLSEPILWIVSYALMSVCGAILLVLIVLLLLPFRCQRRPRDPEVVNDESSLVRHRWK

Chain of memapsin 2 (P56817 46-501): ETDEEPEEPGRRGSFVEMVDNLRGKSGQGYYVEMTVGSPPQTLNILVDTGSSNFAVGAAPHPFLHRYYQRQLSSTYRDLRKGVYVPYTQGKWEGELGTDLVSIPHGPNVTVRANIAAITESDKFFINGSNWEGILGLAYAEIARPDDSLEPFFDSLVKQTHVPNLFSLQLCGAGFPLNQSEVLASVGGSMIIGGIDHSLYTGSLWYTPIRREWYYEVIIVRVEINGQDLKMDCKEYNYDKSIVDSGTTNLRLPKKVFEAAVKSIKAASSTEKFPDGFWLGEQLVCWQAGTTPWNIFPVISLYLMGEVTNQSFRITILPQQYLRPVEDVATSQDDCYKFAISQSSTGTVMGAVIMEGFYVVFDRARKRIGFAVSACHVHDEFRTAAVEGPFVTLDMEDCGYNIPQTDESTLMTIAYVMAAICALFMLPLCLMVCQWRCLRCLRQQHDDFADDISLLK
Chain of Cathepsin D (P07339 65-412, species assumed): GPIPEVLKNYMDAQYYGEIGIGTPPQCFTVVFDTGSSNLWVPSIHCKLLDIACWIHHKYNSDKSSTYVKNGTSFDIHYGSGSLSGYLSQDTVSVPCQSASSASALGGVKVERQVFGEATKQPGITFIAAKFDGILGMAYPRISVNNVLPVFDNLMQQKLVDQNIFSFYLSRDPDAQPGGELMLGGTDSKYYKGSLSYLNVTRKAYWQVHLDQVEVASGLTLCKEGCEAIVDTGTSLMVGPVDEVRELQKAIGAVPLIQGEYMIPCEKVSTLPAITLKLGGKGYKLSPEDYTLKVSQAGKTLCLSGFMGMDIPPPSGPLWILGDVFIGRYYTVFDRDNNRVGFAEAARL

| Compound | IC50 (Aβ production) | Ki (memapsin 2) | Ki (Cathepsin D) | Ki (memapsin 1) |
| --- | --- | --- | --- | --- |
| CC(C)CNC(=O)C(NC(=O)C(C)CC(O)C(CC(C)C)NC(=O)c1cc(C(=O)NC(C)c2ccccc2)cc(S(=O)(=O)N(C)C)c1)C(C)C (stereo not shown) [5-(N,N-dimethylsulfamoyl)-N1-(5-hydroxy-8-(1-(isobutylamino)-3-methyl-1-oxobutan-2-ylamino)-2,7-dimethyl-8-oxooctan-4-yl)-N3-(1-phenylethyl)isophthalamide] | < 5000 nM | 405 to 2000 nM | < 405 nM | < 405 nM |
| CC(=O)Nc1cc(C(=O)NC(C)c2ccccc2)cc(C(=O)NC(CC(C)C)C(O)CC(C)C(=O)NC(C(=O)NCC(C)C)C(C)C)c1 (stereo not shown) [5-acetamido-N1-(5-hydroxy-8-(1-(isobutylamino)-3-methyl-1-oxobutan-2-ylamino)-2,7-dimethyl-8-oxooctan-4-yl)-N3-(1-phenylethyl)isophthalamide] | 5000 to 10000 nM | < 405 nM | < 405 nM | < 405 nM |
| CC(C)CNC(=O)C(NC(=O)C(C)CC(O)C(CC(C)C)NC(=O)c1cc(F)cc(C(=O)NC(C)c2ccccc2)c1)C(C)C (stereo not shown) [5-fluoro-N1-(5-hydroxy-8-(1-(isobutylamino)-3-methyl-1-oxobutan-2-ylamino)-2,7-dimethyl-8-oxooctan-4-yl)-N3-(1-phenylethyl)isophthalamide] | 10000 to 20000 nM | 405 to 2000 nM | < 405 nM | < 405 nM |
| CCCN(CCC)C(=O)c1cccc(C(=O)NC(Cc2cc(F)cc(F)c2)C(O)CC(C)C(=O)NCC(C)C)c1 (stereo not shown) [N1-(1-(3,5-difluorophenyl)-3-hydroxy-6-(isobutylamino)-5-methyl-6-oxohexan-2-yl)-N3,N3-dipropylisophthalamide] | < 5000 nM | < 405 nM | < 405 nM | < 405 nM |
| CCCN(CCC)C(=O)c1cccc(C(=O)NC(Cc2ccc(OC)c(Cl)c2)C(O)CC(C)C(=O)NC(C(=O)NCC(C)C)C(C)C)c1 (stereo not shown) [N1-(1-(3-chloro-4-methoxyphenyl)-3-hydroxy-6-(1-(isobutylamino)-3-methyl-1-oxobutan-2-ylamino)-5-methyl-6-oxohexan-2-yl)-N3,N3-dipropylisophthalamide] | 10000 to 20000 nM | 405 to 2000 nM | < 405 nM | < 405 nM |
| CC(C)CC(NC(=O)c1cc(C(=O)NC2c3ccccc3CC2O)cc(N(C)S(C)(=O)=O)c1)C(O)CC(C)C(=O)NC(C(=O)NC(C)C)C(C)C (stereo not shown) [N1-(2-hydroxy-2,3-dihydro-1H-inden-1-yl)-N3-(5-hydroxy-8-(1-(isopropylamino)-3-methyl-1-oxobutan-2-ylamino)-2,7-dimethyl-8-oxooctan-4-yl)-5-(N-methylmethylsulfonamido)isophthalamide] | > 20000 nM | 405 to 2000 nM | 405 to 2000 nM | 405 to 2000 nM |
| CCCN(CCC)C(=O)c1cccc(C(=O)NC(Cc2ccc(OC)cc2)C(O)CC(C)C(=O)NC(C(=O)NCC(C)C)C(C)C)c1 (stereo not shown) [N1-(3-hydroxy-6-(1-(isobutylamino)-3-methyl-1-oxobutan-2-ylamino)-1-(4-methoxyphenyl)-5-methyl-6-oxohexan-2-yl)-N3,N3-dipropylisophthalamide] | 5000 to 10000 nM | < 405 nM | < 405 nM | < 405 nM |
| CC(C)CC(NC(=O)c1cc(C(=O)NC(C)c2ccccc2)cc(N(C)S(C)(=O)=O)c1)C(O)CC(C)C(=O)NC(C(=O)NCC1CCCN1C)C(C)C (stereo not shown) [N1-(5-hydroxy-2,7-dimethyl-8-(3-methyl-1-((1-methylpyrrolidin-2-yl)methylamino)-1-oxobutan-2-ylamino)-8-oxooctan-4-yl)-5-(N-methylmethylsulfonamido)-N3-(1-phenylethyl)isophthalamide] | < 5000 nM | < 405 nM | 405 to 2000 nM | 405 to 2000 nM |
| CC(C)CC(NC(=O)c1cc(C(=O)NC(C)c2ccccc2)cc(N(C)S(C)(=O)=O)c1)C(O)CC(C)C(=O)NC(C(=O)NCc1ccccn1)C(C)C (stereo not shown) [N1-(5-hydroxy-2,7-dimethyl-8-(3-methyl-1-oxo-1-(pyridin-2-ylmethylamino)butan-2-ylamino)-8-oxooctan-4-yl)-5-(N-methylmethylsulfonamido)-N3-(1-phenylethyl)isophthalamide] | < 5000 nM | < 405 nM | < 405 nM | < 405 nM |
| CC(C)CC(NC(=O)c1cc(C(=O)NC(C)c2ccccc2)cc(N(C)S(C)(=O)=O)c1)C(O)CC(C)C(=O)NC(C(=O)NCc1cccnc1)C(C)C (stereo not shown) [N1-(5-hydroxy-2,7-dimethyl-8-(3-methyl-1-oxo-1-(pyridin-3-ylmethylamino)butan-2-ylamino)-8-oxooctan-4-yl)-5-(N-methylmethylsulfonamido)-N3-(1-phenylethyl)isophthalamide] | < 5000 nM | < 405 nM | 405 to 2000 nM | < 405 nM |
| CC(C)CC(NC(=O)c1cc(C(=O)NC(C)c2ccccc2)cc(N(C)S(C)(=O)=O)c1)C(O)CC(C)C(=O)NC(C(=O)NCc1ccncc1)C(C)C (stereo not shown) [N1-(5-hydroxy-2,7-dimethyl-8-(3-methyl-1-oxo-1-(pyridin-4-ylmethylamino)butan-2-ylamino)-8-oxooctan-4-yl)-5-(N-methylmethylsulfonamido)-N3-(1-phenylethyl)isophthalamide] | < 5000 nM | < 405 nM | < 405 nM | < 405 nM |
| CC(C)CC(NC(=O)c1cc(C(=O)NC(C)c2ccccc2)cc(N(C)S(C)(=O)=O)c1)C(O)CC(C)C(=O)NC(C)c1ccccc1 (stereo not shown) [N1-(5-hydroxy-2,7-dimethyl-8-oxo-8-(1-phenylethylamino)octan-4-yl)-5-(N-methylmethylsulfonamido)-N3-(1-phenylethyl)isophthalamide] | 10000 to 20000 nM | 405 to 2000 nM | 2000 to 5000 nM | > 5000 nM |
| CCC(NC(=O)C(C)CC(O)C(CC(C)C)NC(=O)c1cc(C(=O)NC(C)c2ccccc2)cc(N(C)S(C)(=O)=O)c1)C(=O)NCC(C)C (stereo not shown) [N1-(5-hydroxy-8-(1-(isobutylamino)-1-oxobutan-2-ylamino)-2,7-dimethyl-8-oxooctan-4-yl)-5-(N-methylmethylsulfonamido)-N3-(1-phenylethyl)isophthalamide] | < 5000 nM | < 405 nM | < 405 nM | < 405 nM |
| CC(C)CNC(=O)C(NC(=O)C(C)CC(O)C(CC(C)C)NC(=O)c1cc(C(=O)NCc2cnccn2)cc(N(C)S(C)(=O)=O)c1)C(C)C (stereo not shown) [N1-(5-hydroxy-8-(1-(isobutylamino)-3-methyl-1-oxobutan-2-ylamino)-2,7-dimethyl-8-oxooctan-4-yl)-5-(N-methylmethylsulfonamido)-N3-(pyrazin-2-ylmethyl)isophthalamide] | > 20000 nM | < 405 nM | 405 to 2000 nM | 405 to 2000 nM |
| Cc1cc(C(=O)NC(CC(C)C)C(O)CC(C)C(=O)NC(C(=O)NCC(C)C)C(C)C)cc(C(=O)N(C)Cc2nc(C)cs2)c1 (stereo not shown) [N1-(5-hydroxy-8-(1-(isobutylamino)-3-methyl-1-oxobutan-2-ylamino)-2,7-dimethyl-8-oxooctan-4-yl)-N3,5-dimethyl-N3-((4-methylthiazol-2-yl)methyl)isophthalamide] | < 5000 nM | < 405 nM | < 405 nM | < 405 nM |
| CCCN(Cc1nc(C)cs1)C(=O)c1cccc(C(=O)NC(CC(C)C)C(O)CC(C)C(=O)NC(C(=O)NCC(C)C)C(C)C)c1 (stereo not shown) [N1-(5-hydroxy-8-(1-(isobutylamino)-3-methyl-1-oxobutan-2-ylamino)-2,7-dimethyl-8-oxooctan-4-yl)-N3-((4-methylthiazol-2-yl)methyl)-N3-propylisophthalamide] | 10000 to 20000 nM | < 405 nM | < 405 nM | 405 to 2000 nM |
| Cc1nc(CN(C)C(=O)c2cccc(C(=O)NC(CC(C)C)C(O)CC(C)C(=O)NC(C(=O)NCC(C)C)C(C)C)c2)c(C)o1 (stereo not shown) [N1-((2,5-dimethyloxazol-4-yl)methyl)-N3-(5-hydroxy-8-(1-(isobutylamino)-3-methyl-1-oxobutan-2-ylamino)-2,7-dimethyl-8-oxooctan-4-yl)-N1-methylisophthalamide] | – | < 405 nM | < 405 nM | 405 to 2000 nM |
| COC(=O)N(C)c1cc(C(=O)NC(C)c2ccccc2)cc(C(=O)NC(CC(C)C)C(O)CC(C)C(=O)NC(C(=O)NCC(C)C)C(C)C)c1 (stereo not shown) [methyl 3-(5-hydroxy-8-(1-(isobutylamino)-3-methyl-1-oxobutan-2-ylamino)-2,7-dimethyl-8-oxooctan-4-ylcarbamoyl)-5-(1-phenylethylcarbamoyl)phenyl(methyl)carbamate] | – | 405 to 2000 nM | < 405 nM | < 405 nM |
